Test results reported in ChEMBL document CHEMBL1142355, “Antimalarial dual drugs based on potent inhibitors of glutathione reductase from Plasmodium falciparum” (J Med Chem, 2008).

Tests used:
Plasmodium berghei [1] = experiment: Antimalarial activity against Plasmodium berghei ANKA infected BALB/c mice (Mus musculus) at 30 mg/kg intraperitoneal dose after 4 days; format: functional; conditions: ip, 96 h
Plasmodium berghei [2] = experiment: Antimalarial 95% clearance activity against Plasmodium berghei ANKA infected BALB/c mice (Mus musculus) at 30 mg/kg intraperitoneal dose after 4 days; format: functional
Plasmodium berghei [3] = experiment: Reduced parasitemia in Plasmodium berghei ANKA infected BALB/c mice (Mus musculus) at 30 mg/kg intraperitoneal dose after 4 days; format: functional; design: scale not given: the % may be the effect or the level left
Plasmodium falciparum [4] = experiment: Antiparasitic activity against chloroquine-sensitive Plasmodium falciparum 3D7; format: functional, organism-based
Plasmodium falciparum [5] = experiment: Antiparasitic activity against chloroquine-resistant Plasmodium falciparum K1; format: functional, organism-based
KB = experiment: Cytotoxicity against human KB cells by alamar blue assay; format: functional, cell-based; conditions: for CC50: read-out: TD50 (the source's name)
Plasmodium falciparum [6] = experiment: Relative IC50 against Plasmodium falciparum K1 and 3D7; format: functional
Plasmodium falciparum [7] = experiment: microbe, parasite or virus in culture; conditions: 3 h
Description: Antiparasitic activity against chloroquine-sensitive Plasmodium falciparum by [3H]hypoxanthine incorporation

Plasmodium berghei [8] = experiment: Antimalarial 95% clearance activity against Plasmodium berghei ANKA infected BALB/c mice (Mus musculus) at 21 mg/kg intraperitoneal dose after 4 days; format: functional
Plasmodium berghei [9] = experiment: Reduced parasitemia in Plasmodium berghei ANKA infected BALB/c mice (Mus musculus) at 21 mg/kg intraperitoneal dose after 4 days; format: functional; design: scale not given: the % may be the effect or the level left
Plasmodium berghei [10] = experiment: Antimalarial activity against Plasmodium berghei ANKA infected BALB/c mice (Mus musculus) at 21 mg/kg intraperitoneal dose after 4 days; format: functional; conditions: ip, 96 h
Plasmodium berghei [11] = experiment: Reduced parasitemia in Plasmodium berghei ANKA infected BALB/c mice (Mus musculus) at 10 mg/kg peroral dose after 4 days; format: functional; design: scale not given: the % may be the effect or the level left; conditions: route oral
Plasmodium berghei [12] = experiment: Antimalarial activity against Plasmodium berghei ANKA infected BALB/c mice (Mus musculus) at 10 mg/kg peroral dose after 4 days; format: functional; conditions: 96 h, route oral

Row | Structure (SMILES) | IC50 (Plasmodium falciparum [4]) [nM] | IC50 (Plasmodium falciparum [5]) [nM] | CC50 (KB) [nM] | Ratio IC50 (Plasmodium falciparum [6]) | also measured
1 | COc1c(CNCCNc2ccnc3cc(Cl)ccc23)c(C(F)(F)F)c(OC)c2ccccc12.Cl |  |  |  |  | inhibition in vivo at 30 mg/kg (Plasmodium berghei [1]): 18.3%; Activity (Plasmodium berghei [2]): 2.82%; Activity (Plasmodium berghei [3]): 12.48%
2 | COc1cc(CN(CCNc2ccnc3cc(Cl)ccc23)CC(C)(C)C)c(OC)c2ccccc12 | 237 | 154 | 8800 |  | 
3 | CC1=C(CCCCCC(=O)NCCNc2ccnc3cc(Cl)ccc23)C(=O)c2ccccc2C1=O | 184 | 367 | 22200 | 2 | 
4 | CC(C)(C)CNCCNc1ccnc2cc(Cl)ccc12 | 20.6 | 6.8 | 62100 | 0.3 | 
5 | COc1c(CN(CCNc2ccnc3cc(Cl)ccc23)CC(C)C)c(C(F)(F)F)c(OC)c2ccccc12 | 162 | 198 | 11900 |  | 
6 | CC(C)(C)NC(=O)CNc1ccnc2cc(Cl)ccc12 | 994 | 1440 | 194000 | 1.4 | 
7 | COc1c(CN(CCNc2ccnc3cc(Cl)ccc23)CC(C)(C)C)c(C(F)(F)F)c(OC)c2ccccc12 | 146 | 116 | 12000 |  | 
8 | CC(C)(C)CNCCNc1ccnc2cc(Cl)ccc12.Cl |  |  |  |  | inhibition in vivo at 30 mg/kg (Plasmodium berghei [1]): 94.4%; Activity (Plasmodium berghei [2]): 0.31%; Activity (Plasmodium berghei [3]): 0.86%
9 | CCN(CC)Cc1cc(Nc2ccnc3cc(Cl)ccc23)ccc1O.Cl |  | 6.4 |  | 0.6 | IC50 (Plasmodium falciparum [7]): 9.5 nM
10 | Clc1ccc2c(NCCNCC3CC3)ccnc2c1 | 2.7 | 145 | 71900 | 53.7 | 
11 | CC(=O)Nc1ccc(O)cc1 [ACETAMINOPHEN] | > 198000 | 86700 |  | <0.4 | 
12 | Clc1ccc2c(N3CCN(CCCN4CCN(c5ccnc6cc(Cl)ccc56)CC4)CC3)ccnc2c1 [PIPERAQUINE] |  |  |  |  | IC50 (Plasmodium falciparum [7]): 14.6 nM
13 | COc1c(C)c(Cc2ccc(CC(=O)N(CCNc3ccnc4cc(Cl)ccc34)C(C)C)cc2)c(OC)c2ccccc12 | 319 | 268 | 1700 | 0.8 | 
14 | COc1cc(CNCCNc2ccnc3cc(Cl)ccc23)c(OC)c2ccccc12 | 23.7 | 28.4 | 3800 |  | 
15 | CC1=C(CCCCCC(=O)N(CCNc2ccnc3cc(Cl)ccc23)C(C)C)C(=O)c2ccccc2C1=O | 7.5 | 9.4 | 37000 | 1.1 | Activity (Plasmodium berghei [8]): 2.65%; Activity (Plasmodium berghei [9]): 12.5%; inhibition in vivo at 21 mg/kg (Plasmodium berghei [10]): 18.2%
16 | COc1c(C)c(CN(CCNc2ccnc3cc(Cl)ccc23)C(C)C)c(OC)c2ccccc12 | 83.7 | 105 | 85800 |  | 
17 | CO[C@H]1O[C@@H]2O[C@@]3(C)CC[C@H]4[C@H](C)CC[C@@H]([C@H]1C)[C@@]24OO3 |  |  |  |  | IC50 (Plasmodium falciparum [7]): 2.8 nM
18 | NCCNc1ccnc2cc(Cl)ccc12 | 4.5 | 1800 | 49600 | 400 | 
19 | CC(C)NCCNc1ccnc2cc(Cl)ccc12 | 10.2 | 96.7 | 89800 | 9.5 | 
20 | C[C@@H]1CC[C@H]2[C@@H](C)C(=O)O[C@@H]3O[C@@]4(C)CC[C@@H]1[C@]32OO4 [ARTEMISININ] |  |  |  |  | IC50 (Plasmodium falciparum [7]): 4.5 nM
21 | COc1c(C)c(CN(CCNc2ccnc3cc(Cl)ccc23)CC(C)(C)C)c(OC)c2ccccc12 | 156 | 134 | 10600 |  | 

Row | Structure (SMILES) | IC50 (Plasmodium falciparum [4]) [nM] | IC50 (Plasmodium falciparum [5]) [nM] | CC50 (KB) [nM] | Ratio IC50 (Plasmodium falciparum [6]) | also measured
22 | COc1cc(CN(CCNc2ccnc3cc(Cl)ccc23)CC(C)C)c(OC)c2ccccc12 | 146 | 188 | 43800 |  | 
23 | COc1c(C)c(CNCCNc2ccnc3cc(Cl)ccc23)c(OC)c2ccccc12 | 229 | 22.9 | 5100 |  | 
24 | COc1cc(CN(CCNc2ccnc3cc(Cl)ccc23)C(C)C)c(OC)c2ccccc12 | 517 | 345 |  |  | IC50 (KB): 67000 nM
25 | Clc1ccc2c(N3CC3)ccnc2c1 | 16000 | 39200 | 102000 | 2.4 | 
26 | CC(C)CNCCNc1ccnc2cc(Cl)ccc12 | 22.8 | 72 | 22500 | 3.1 | 
27 | CN(C)c1ccc2nc3ccc(N(C)C)cc3[s+]c2c1 [METHYLENE BLUE ANHYDROUS] |  |  |  |  | IC50 (Plasmodium falciparum [7]): 5.4 nM
28 | CC(C)NCCCNc1ccnc2cc(Cl)ccc12 | 3.6 | 144 | 47900 | 40 | 
29 | CC1=C(Cc2ccc(CC(=O)N(CCNc3ccnc4cc(Cl)ccc34)C(C)C)cc2)C(=O)c2ccccc2C1=O | 12.4 | 5.3 | 318000 | 0.4 | 
30 | COc1c(C)c(CN(CCNc2ccnc3cc(Cl)ccc23)CC(C)C)c(OC)c2ccccc12 | 183 | 40.6 | 30600 |  | 
31 | COc1c(COc2ccc(NC(C)=O)cc2)c(C(F)(F)F)c(OC)c2ccccc12 | 6440 | 15700 | > 715000 | 2.4 | 
32 | COc1c(CNCCNc2ccnc3cc(Cl)ccc23)c(C(F)(F)F)c(OC)c2ccccc12 | 128 | 16 | 28500 |  | 
33 | CCN(CC)CCCC(C)Nc1ccnc2cc(Cl)ccc12 (stereo unspecified) [CHLOROQUINE] |  |  | 127000 |  | Activity (Plasmodium berghei [11]): 0.13%; inhibition in vivo at 10 mg/kg (Plasmodium berghei [12]): 99.2%
34 | COc1c(CN(CCNc2ccnc3cc(Cl)ccc23)C(C)C)c(C(F)(F)F)c(OC)c2ccccc12 | 184 | 299 | 35400 |  | 
35 | O[C@@H](c1cc(C(F)(F)F)nc2c(C(F)(F)F)cccc12)[C@H]1CCCCN1 [MEFLOQUINE] |  |  |  |  | IC50 (Plasmodium falciparum [7]): 4.85 nM
36 | CC(=O)Nc1ccc(O)c(CN(CCCNc2ccnc3cc(Cl)ccc23)C(C)C)c1 | 22.7 | 318 | 180000 |  | 
37 | CC(C)(C)NCCNc1ccnc2cc(Cl)ccc12 | 21.2 | 128 | 143000 | 6 | 
38 | COc1c(C)c(CCCCCC(=O)N(CCNc2ccnc3cc(Cl)ccc23)C(C)C)c(OC)c2ccccc12 | 52.8 | 302 | 6900 | 5.7 | 
39 | COc1c(C)c(Cc2ccc(CC(=O)NCCNc3ccnc4cc(Cl)ccc34)cc2)c(OC)c2ccccc12 | 289 | 505 | 11500 | 1.7 | 
40 | CCN(CC)Cc1cc(Nc2ccnc3cc(Cl)ccc23)ccc1OCc1c(C(F)(F)F)c(OC)c2ccccc2c1OC | 32 | 32 | 15000 | 1 | 
41 | COc1cc([C@@H]2c3cc4c(cc3[C@H](O)[C@H]3COC(=O)[C@H]23)OCO4)cc(OC)c1OC [PODOFILOX] |  |  | 49600 |  | 
